Source: patent US20180282279A1, “Pantothenamide Analogues” (Radboud Universitair Medisch Centrum, priority 2014, published 2018)

Tests used:
[1] = test system: Plasmodium falciparum NF54 parasites; assay: P. falciparum asexual blood stage replication assay (SYBR Green); assay type: cell-based; settings: NF54, 10% human serum, 72 incubation
Method: Compounds were tested on their ability to inhibit replication of the human malaria parasite Plasmodium falciparum. To this end, Plasmodium falciparum NF54 parasites were cultured in RPMI1640 medium supplemented with 367 μM hypoxanthine, 25 mM HEPES, 25 mM sodiumbicarbonate and 10% human type A serum in an automated large-scale culture system as described before (Transactions of the Royal Society of Tropical Medicine and Hygiene, 1982. 76: p. 812-818). Compounds were diluted in DMSO and subsequently in culture medium to reach a DMSO concentration of 0.2%. 50 μl of diluted compound was transferred to a black 96 well plate. A culture of P. falciparum strain NF54 malaria parasites was diluted to a parasitaemia of 0.5% and a hematocrit of 3%. 50 μl of this diluted culture was added to each well in the 96 well plate._The outermost wells of the plate were filled with sterile water to prevent evaporation. The established antimalarial dihydroartemisinin (DHA) in DMSO acted as a positive control (MIN signal), and 0.1% DMSO acted as a negative control (MAX signal). The plates were incubated for 72 at 37° C., 3% 02, 5% CO2, 93% N2. Changes in parasite replication relative to the controls were monitored using the DNA-marker SYBR Green as described previously (Antimicrob Agents Chemother 48:1803-6). Data were analyzed by logistic regression using the formula: Y=Bottom+(Top-Bottom)/(1+10̂((Log IC50−X)*HillSlope)) and a least squares method to find the best fit.
Using similar methods, IC50 values were determined for a variety of inverted pantothenamides, as listed in table 1 (see section: ‘Detailed description of the invention’)

[2] = test system: P. falciparum gametocytes; assay: microbe, parasite or virus in culture; assay type: cell-based, Plasmodium falciparum; settings: for IC50: 72 hour incubation, read-out: Gametocyte viability (pLDH) IC50; for effect on gametocyte viability (pLDH activity): FIG. 4A; for extent of inhibition of gametocyte viability: compared with reference compound DHA
Method: Compounds were tested for their ability to affect the viability of gametocytes, the sexually committed blood stages of P. falciparum that underlie transmission to the mosquito vector. To this end, two different assays were performed. The first assay monitored pLDH activity as a measure of viability of gametocytes (J Antimicrob Chemother. 2013 September; 68(9):2048-58). The second assay monitored the ability of gametocytes to form a female gamete by detection of the gamete-specific marker Pfs25. Plasmodium falciparum NF54 parasites were cultured in RPMI1640 medium supplemented with 367 μM hypoxanthine, 25 mM HEPES, 25 mM sodiumbicarbonate and 10% human type A serum in an automated large-scale culture system as described before (Transactions of the Royal Society of Tropical Medicine and Hygiene, 1982. 76: p. 812-818). Cultures were treated with 50 mM N-acetyl-D-glucosamine from day 4 till day 9 to kill asexual parasites. On day 11 gametocytes were isolated by discontinuous 63% Percoll gradient centrifugation. Compounds were diluted in DMSO and subsequently in culture medium to reach a DMSO concentration of 0.2%. To measure the effect of compounds of pLDH activity, gametocytes were seeded at a density of 3.5×10^4 gametocytes per well in a black 384 well plate in 30 μl of culture medium, and 30 μl of diluted compound was added. Following a 72 hour incubation at 37° C., 98% humidity, 93% N2, 4% CO2 and 3% O2, gametocyte viability was measured by a modified plasmodium lactate dehydrogenase assay by using resazurin as a substrate as previously described (Nature, 2013. 504(7479): p. 248-53). Assays were performed in quadruplicate (two different plates with two different gametocyte batches) and all plates included controls MIN (1 μM DHA), MAX (0.1% DMSO) and a serial dilution of reference compound dihydroartemisinin (DHA).

[3] = test system: P. falciparum gametocytes; assay: Gametocyte female gametogenesis capacity assay (Pfs25 AlphaLISA); assay type: cell-based; settings: Plasmodium falciparum, 72 hours incubation
Method: To monitor compound effects on the ability of a gametocyte to form a female gamete, day 11 (stage IV) gametocytes were seeded at a density of 4×10^5 gametocytes per well in a V-bottom plate in 50 μl culture medium. 50 μl of diluted compound was added to the gametocytes (0.1% DMSO final concentration) and plates were incubated for 72 hours at 37° C., 98% humidity, 93% N2, 4% CO2 and 3% O2. Subsequently, gametogenesis was induced by adding xanthurenic acid to a final concentration of 40 μM and plates were incubated for 16 hours at 20° C. Gametes were detected in a homogeneous proximity immunoassay on basis of Pfs25 expression by use of AlphaLISA technology (Perkin Elmer). All steps were performed at 20° C. Gametes were washed twice with PBS, lysed for 15 min in 10 μl 10 mM Tris pH 8.0/1% laurylsarcosyl/1 mM phenylmethanesulfonyl fluoride and combined with 10 μl 5 nM biotinylated mouse anti-Pfs25 monoclonal antibody 32F6244 in a white 384 well optiplate (Perkin Elmer). After 1 hour incubation 15 μl of 33 μg/ml acceptorbeads coated with mouse anti-Pfs25 monoclonal antibody 32F81 were added. After 1 hour incubation, 15 μl 33 μg/ml Streptavidin-conjugated donorbeads were added. Finally, after 1 hour incubation luminescence signals were monitored at the 615 nm emission wavelength following excitation at 680 nm using a fluorometer (Biotek Synergy 2). All compounds were tested in duplicate (24 hr) or triplicate (1 and 72 hr). Controls included MIN (0.1 μM epoxomicin) and MAX (0.1% DMSO). Data were analyzed by logistic regression using the formula: Y=Bottom+(Top−Bottom)/(1+10̂((Log IC50−X)*HillSlope)) and a least squares method to find the best fit.

[4] = test system: P. falciparum asexual blood stage parasites; assay: Asexual replication assay in competition with pantothenate; assay type: cell-based, Plasmodium falciparum; settings: log dose ratio −1 vs log pantothenate concentration
Method: FIG. 3: Competition between pantothenic acid and inverted-amide pantothenamide. Asexual replication assays were performed in combinations of pantothenic acid (PA) and CXP18.6-017 (A), CXP18.6-026 (B) and CXP18.6-052 (C). The relative number of parasites was determined by a Sybrgreen DNA detection method. Data are expressed relative to the MAX (0.1% DMSO) and MIN (10 μM DHA) controls. Error bars indicate standard deviations from two independent observations. D) S child regression analysis of combinations of CXP18.6-052 and pantothenic acid.
To study their interaction with pantothenate-dependent pathways, asexual replication assays were performed with CXP18.6-017, CXP18.6-026 and CXP18.6-052 in the presence of increasing amounts pantothenate. When combining a pantothenamide analogue and pantothenate in the same well the conditions were otherwise similar to the single compound assays described above, however the final DMSO concentration was 0.2%, which was also adjusted for the positive and negative controls.

[5] = Table 3, read-out: Gametocyte gametogenesis capacity (Pfs25) IC50
[6] = FIG. 4B, read-out: female gametogenesis capacity of gametocytes IC50

| Compound | IC50 [1] | IC50 ([2]; Plasmodium falciparum) | IC50 [3, 5] | Schild regression analysis with pantothenate [4] | effect on gametocyte viability (pLDH activity) [2] | extent of inhibition of gametocyte viability [2] | IC50 [3, 6] | maximum inhibition of gametocyte viability ([2]; Plasmodium falciparum, 72 h) |
| --- | --- | --- | --- | --- | --- | --- | --- | --- |
| CC(C)(CO)[C@@H](O)C(=O)NCCNC(=O)CCc1ccccc1 [CXP18.6-006] | 0.12 µM | > 10000 nM | 478 nM |  |  |  |  |  |
| CC(C)(CO)[C@@H](O)C(=O)NCCNC(=O)CCc1ccccc1F [CXP18.6-017] | 0.022 µM | 100 nM | 36 nM | did not reveal a linear correlation | dose dependently reduced gametocyte viability | to the same extent as the reference compound DHA | 37 nM |  |
| Cc1ccc(CCC(=O)NCCNC(=O)[C@H](O)C(C)(C)CO)cc1 [CXP18.6-026] | 0.16 µM | 170 nM | 13 nM | did not reveal a linear correlation | dose dependently reduced gametocyte viability | to the same extent as the reference compound DHA | 13 nM |  |
| CC(C)(CO)[C@@H](O)C(=O)NCCNC(=O)CCc1cccnc1 [CXP18.6-052] | 0.008 µM |  |  | competitive antagonism | dose dependently reduced gametocyte viability |  | 1970 nM | ~50% |
